According to ChEMBL document CHEMBL1141757, “Structural revision of aspernigrin A, reisolated from Cladosporium herbarum IFB-E002” (J Nat Prod, 2005):

Experiments:
[1] = molecular target: Xanthine dehydrogenase/oxidase (Homo sapiens, UniProt P47989); test: Inhibition of xanthine oxidase
[2] = Cytotoxicity against human SW1116 cells; type: functional, cell-based; details: SW 1116

Chain of Xanthine dehydrogenase/oxidase (P47989 whole entry): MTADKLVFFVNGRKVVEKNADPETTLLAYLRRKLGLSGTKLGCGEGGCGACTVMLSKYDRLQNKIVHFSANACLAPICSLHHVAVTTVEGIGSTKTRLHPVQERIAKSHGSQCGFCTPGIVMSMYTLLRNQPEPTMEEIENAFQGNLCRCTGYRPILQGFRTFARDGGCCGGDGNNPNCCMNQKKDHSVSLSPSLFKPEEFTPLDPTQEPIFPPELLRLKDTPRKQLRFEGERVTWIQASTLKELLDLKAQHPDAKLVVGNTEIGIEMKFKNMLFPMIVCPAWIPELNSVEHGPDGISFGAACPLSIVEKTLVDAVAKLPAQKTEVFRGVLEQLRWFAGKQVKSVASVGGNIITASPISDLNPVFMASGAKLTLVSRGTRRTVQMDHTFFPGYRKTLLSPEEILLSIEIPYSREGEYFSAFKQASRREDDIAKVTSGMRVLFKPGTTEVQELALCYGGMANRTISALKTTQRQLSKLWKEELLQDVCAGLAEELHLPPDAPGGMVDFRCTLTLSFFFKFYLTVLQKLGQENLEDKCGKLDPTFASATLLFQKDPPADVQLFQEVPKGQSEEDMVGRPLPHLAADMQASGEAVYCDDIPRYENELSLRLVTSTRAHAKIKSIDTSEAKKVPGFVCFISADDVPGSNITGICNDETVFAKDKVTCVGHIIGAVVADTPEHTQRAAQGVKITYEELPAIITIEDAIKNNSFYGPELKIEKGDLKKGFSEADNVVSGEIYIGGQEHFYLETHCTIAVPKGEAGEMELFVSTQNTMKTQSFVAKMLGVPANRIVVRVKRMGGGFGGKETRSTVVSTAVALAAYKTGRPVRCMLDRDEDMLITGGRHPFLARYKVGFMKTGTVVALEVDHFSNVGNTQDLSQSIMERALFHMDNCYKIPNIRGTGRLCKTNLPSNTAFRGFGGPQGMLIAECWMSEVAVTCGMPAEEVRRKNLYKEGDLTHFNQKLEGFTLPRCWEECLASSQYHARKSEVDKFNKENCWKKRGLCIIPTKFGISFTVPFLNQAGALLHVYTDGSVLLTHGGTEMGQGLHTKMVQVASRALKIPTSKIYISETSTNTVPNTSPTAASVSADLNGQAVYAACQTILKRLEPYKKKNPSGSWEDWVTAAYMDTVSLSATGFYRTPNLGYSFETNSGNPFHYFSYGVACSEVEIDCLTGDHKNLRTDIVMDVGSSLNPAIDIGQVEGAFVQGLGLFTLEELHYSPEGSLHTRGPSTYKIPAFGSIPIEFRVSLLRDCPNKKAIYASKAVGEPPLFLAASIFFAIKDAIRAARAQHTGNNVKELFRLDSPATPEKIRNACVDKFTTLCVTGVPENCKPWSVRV

SMILES | IC50 [1] | IC50 [2]
COc1cc(OC)c2c(O)c3c(=O)cc(C)oc3c(-c3c(OC)cc4cc(O)c5c(=O)cc(C)oc5c4c3OC)c2c1 [FONSECINONE A] | 19.5 µM | –
COc1cc(OC)c2c(O)c3c(=O)cc(C)oc3cc2c1 [RUBROFUSARIN B] | 16.8 µM | 15.7 µM
